Laboratory results published in ChEMBL document CHEMBL5291721, “A preclinical secondary pharmacology resource illuminates target-adverse drug reaction associations of marketed drugs” (Nat Commun, 2023).

What was measured:
[1] = molecular target: T1, Alpha-1A adrenergic receptor (Homo sapiens, UniProt P35348); type: functional, cell-based
T1 sequence (P35348 whole entry): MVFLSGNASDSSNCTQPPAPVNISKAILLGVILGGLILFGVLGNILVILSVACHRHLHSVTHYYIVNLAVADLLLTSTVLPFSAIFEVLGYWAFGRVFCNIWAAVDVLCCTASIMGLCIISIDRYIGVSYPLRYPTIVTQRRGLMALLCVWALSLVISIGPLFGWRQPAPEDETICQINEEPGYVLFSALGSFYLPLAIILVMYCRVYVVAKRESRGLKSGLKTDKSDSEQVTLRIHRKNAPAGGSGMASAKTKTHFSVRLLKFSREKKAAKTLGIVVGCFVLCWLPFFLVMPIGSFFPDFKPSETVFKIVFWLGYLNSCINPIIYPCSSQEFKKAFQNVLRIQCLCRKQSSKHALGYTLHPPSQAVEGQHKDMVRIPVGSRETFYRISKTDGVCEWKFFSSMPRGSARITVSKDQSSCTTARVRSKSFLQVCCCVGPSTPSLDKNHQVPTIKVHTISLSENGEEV

[2] = molecular target: Prostaglandin G/H synthase 1 (Homo sapiens, UniProt P23219); type: functional
[3] = molecular target: Acetylcholinesterase (Homo sapiens, UniProt P22303); type: functional
[4] = molecular target: Sodium-dependent dopamine transporter (Homo sapiens, UniProt Q01959)
[5] = molecular target: T2, Muscarinic acetylcholine receptor M2 (Homo sapiens, UniProt P08172)
T2 sequence (P08172 whole entry): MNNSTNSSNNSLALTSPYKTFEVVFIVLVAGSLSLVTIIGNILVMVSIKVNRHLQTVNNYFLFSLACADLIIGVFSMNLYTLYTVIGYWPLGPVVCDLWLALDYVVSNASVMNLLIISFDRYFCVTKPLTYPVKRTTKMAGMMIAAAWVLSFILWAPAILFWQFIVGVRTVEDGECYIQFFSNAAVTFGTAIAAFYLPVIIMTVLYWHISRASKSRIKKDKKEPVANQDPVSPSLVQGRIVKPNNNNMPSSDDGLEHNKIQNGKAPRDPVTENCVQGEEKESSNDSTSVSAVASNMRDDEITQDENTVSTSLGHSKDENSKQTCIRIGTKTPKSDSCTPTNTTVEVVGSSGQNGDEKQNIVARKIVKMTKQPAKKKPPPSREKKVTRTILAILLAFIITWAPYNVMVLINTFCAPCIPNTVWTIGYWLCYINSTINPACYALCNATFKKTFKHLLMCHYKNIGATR

[6] = molecular target: T3, Thromboxane A2 receptor (Homo sapiens, UniProt P21731); type: functional, cell-based
T3 sequence (P21731 whole entry): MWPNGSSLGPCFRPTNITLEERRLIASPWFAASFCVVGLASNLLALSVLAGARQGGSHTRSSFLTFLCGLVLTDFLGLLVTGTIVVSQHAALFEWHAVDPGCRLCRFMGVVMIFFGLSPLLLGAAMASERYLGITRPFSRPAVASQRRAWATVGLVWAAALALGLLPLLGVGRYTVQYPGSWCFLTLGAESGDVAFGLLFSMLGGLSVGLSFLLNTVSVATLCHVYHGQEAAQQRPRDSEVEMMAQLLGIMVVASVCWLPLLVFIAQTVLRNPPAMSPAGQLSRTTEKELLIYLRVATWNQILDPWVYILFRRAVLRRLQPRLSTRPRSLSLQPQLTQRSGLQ

[7] = molecular target: T4, Alpha-2A adrenergic receptor (Homo sapiens, UniProt P08913)
T4 sequence (P08913 whole entry): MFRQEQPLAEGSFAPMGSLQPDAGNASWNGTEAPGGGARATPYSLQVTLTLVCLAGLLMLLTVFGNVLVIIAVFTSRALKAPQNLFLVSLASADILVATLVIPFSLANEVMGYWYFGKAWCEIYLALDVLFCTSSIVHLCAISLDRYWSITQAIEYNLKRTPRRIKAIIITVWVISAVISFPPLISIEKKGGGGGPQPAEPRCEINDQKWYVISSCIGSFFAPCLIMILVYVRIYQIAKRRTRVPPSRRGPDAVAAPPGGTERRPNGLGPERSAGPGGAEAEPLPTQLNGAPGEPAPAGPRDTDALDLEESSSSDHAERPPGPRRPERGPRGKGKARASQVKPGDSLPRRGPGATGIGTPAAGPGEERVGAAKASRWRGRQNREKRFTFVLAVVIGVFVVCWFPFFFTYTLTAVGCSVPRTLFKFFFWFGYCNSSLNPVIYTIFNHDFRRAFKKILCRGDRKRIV

[8] = molecular target: T3, Thromboxane A2 receptor
[9] = molecular target: Gamma-aminobutyric acid receptor subunit alpha-1 (Rattus norvegicus, UniProt P62813)
[10] = molecular target: Cannabinoid receptor 1 (Homo sapiens, UniProt P21554); type: functional, cell-based
[11] = molecular target: Histamine H1 receptor (Homo sapiens, UniProt P35367)
Further: assay procedure not described here.

Chain of Acetylcholinesterase (P22303 whole entry): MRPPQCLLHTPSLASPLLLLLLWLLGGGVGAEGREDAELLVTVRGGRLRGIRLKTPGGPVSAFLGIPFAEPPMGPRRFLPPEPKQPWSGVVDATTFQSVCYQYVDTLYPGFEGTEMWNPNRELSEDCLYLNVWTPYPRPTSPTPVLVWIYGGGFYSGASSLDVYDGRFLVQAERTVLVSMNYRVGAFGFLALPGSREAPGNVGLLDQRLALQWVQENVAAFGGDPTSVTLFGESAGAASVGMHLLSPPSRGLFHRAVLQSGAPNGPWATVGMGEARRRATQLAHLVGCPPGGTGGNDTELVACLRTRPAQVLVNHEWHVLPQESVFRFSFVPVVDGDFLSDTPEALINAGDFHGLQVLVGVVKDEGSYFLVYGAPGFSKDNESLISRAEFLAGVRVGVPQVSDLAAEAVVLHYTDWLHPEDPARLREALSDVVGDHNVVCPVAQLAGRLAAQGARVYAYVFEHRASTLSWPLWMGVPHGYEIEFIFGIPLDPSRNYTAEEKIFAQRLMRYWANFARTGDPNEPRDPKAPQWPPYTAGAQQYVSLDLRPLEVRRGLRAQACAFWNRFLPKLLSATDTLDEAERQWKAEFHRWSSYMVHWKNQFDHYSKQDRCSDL
Chain of Cannabinoid receptor 1 (P21554 whole entry): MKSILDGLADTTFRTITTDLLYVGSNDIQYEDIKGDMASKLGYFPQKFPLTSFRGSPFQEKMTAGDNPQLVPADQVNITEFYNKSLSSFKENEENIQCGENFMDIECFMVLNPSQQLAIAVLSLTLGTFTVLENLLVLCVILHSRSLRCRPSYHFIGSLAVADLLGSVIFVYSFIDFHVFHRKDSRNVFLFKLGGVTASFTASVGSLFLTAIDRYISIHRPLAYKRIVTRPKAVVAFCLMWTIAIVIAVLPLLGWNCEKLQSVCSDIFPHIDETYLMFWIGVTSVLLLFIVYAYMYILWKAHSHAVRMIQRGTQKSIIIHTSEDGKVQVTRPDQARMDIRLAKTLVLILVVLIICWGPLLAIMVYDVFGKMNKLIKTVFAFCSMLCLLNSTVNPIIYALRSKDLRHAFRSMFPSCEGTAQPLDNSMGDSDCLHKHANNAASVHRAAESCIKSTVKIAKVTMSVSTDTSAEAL
Chain of Gamma-aminobutyric acid receptor subunit alpha-1 (P62813 whole entry): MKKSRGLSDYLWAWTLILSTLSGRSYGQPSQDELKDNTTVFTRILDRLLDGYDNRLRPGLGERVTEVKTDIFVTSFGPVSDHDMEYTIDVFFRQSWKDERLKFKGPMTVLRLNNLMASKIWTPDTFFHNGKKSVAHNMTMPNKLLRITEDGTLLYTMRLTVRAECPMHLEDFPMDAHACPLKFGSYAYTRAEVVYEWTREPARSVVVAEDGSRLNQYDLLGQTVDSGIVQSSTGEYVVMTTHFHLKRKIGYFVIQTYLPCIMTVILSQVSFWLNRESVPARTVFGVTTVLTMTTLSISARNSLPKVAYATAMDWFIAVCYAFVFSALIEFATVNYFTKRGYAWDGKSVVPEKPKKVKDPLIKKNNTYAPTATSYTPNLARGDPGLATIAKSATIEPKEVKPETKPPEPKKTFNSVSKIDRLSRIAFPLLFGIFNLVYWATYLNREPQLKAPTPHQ
Chain of Sodium-dependent dopamine transporter (Q01959 whole entry): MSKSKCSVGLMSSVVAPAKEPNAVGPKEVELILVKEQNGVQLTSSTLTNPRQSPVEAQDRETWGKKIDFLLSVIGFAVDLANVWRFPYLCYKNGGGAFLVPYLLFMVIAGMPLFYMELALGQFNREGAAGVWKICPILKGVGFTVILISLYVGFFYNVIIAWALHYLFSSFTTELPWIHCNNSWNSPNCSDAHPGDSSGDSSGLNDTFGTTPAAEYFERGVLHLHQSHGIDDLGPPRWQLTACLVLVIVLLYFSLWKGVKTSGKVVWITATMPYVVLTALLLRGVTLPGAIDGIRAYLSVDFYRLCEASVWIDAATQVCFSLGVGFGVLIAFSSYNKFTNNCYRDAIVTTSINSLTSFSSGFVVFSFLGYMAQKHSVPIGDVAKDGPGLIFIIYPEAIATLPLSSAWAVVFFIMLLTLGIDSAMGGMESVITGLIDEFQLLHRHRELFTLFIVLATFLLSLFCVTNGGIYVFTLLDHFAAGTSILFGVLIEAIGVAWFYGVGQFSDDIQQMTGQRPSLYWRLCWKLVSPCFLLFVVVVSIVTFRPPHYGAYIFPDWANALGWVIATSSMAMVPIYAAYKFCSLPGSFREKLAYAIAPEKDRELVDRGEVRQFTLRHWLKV
Chain of Prostaglandin G/H synthase 1 (P23219 whole entry): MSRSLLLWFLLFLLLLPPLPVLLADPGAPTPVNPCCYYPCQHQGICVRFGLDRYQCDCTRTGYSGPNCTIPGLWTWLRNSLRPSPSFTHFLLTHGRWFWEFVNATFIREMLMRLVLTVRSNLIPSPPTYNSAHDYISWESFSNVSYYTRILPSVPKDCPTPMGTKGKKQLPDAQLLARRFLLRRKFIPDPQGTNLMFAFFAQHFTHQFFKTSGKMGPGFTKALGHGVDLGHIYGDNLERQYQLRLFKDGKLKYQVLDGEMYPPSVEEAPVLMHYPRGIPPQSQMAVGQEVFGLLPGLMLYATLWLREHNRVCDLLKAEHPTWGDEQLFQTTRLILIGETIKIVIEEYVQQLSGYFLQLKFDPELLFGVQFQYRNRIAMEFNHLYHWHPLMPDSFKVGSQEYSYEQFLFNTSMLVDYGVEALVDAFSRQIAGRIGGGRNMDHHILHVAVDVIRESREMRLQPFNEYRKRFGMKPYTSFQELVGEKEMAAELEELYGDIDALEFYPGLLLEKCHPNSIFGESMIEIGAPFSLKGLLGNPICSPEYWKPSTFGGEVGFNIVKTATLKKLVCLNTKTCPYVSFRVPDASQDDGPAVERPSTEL
Chain of Histamine H1 receptor (P35367 whole entry): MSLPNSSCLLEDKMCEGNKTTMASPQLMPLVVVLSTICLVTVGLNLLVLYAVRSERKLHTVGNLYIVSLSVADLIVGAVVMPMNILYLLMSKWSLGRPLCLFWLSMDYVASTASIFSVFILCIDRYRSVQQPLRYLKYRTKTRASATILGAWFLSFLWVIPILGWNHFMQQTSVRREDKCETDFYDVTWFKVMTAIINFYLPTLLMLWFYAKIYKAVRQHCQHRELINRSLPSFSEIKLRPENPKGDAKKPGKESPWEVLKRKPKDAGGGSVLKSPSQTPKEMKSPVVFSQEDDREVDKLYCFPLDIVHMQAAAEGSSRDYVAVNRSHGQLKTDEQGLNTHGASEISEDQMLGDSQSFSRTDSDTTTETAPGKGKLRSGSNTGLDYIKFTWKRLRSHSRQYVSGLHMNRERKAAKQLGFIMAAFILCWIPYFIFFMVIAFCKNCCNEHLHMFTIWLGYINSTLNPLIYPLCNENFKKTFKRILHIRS

| Structure (SMILES) | AC50 [1] | AC50 [2] | AC50 [3] | AC50 [4] | AC50 [5] | AC50 [6] | AC50 [7] | AC50 [8] | AC50 [9] | AC50 [10] | AC50 [11] |
| --- | --- | --- | --- | --- | --- | --- | --- | --- | --- | --- | --- |
| C[C@@H](CN1CC(=O)NC(=O)C1)N1CC(=O)NC(=O)C1 [DEXRAZOXANE] | > 30 µM | 2.16 µM | > 30 µM | > 30 µM | > 30 µM | > 30 µM | > 30 µM |  |  |  |  |
| O=c1[nH]cc(F)c(=O)[nH]1 [FLUOROURACIL] | > 30 µM | > 30 µM | > 30 µM | > 30 µM | > 30 µM | > 30 µM | > 30 µM |  |  |  |  |
| CCN(CCO)CCCC(C)Nc1ccnc2cc(Cl)ccc12 (stereo unspecified) [HYDROXYCHLOROQUINE] |  |  |  |  |  |  |  | > 10 µM | > 10 µM |  |  |
| Cc1ccc(C(C)C)c(O)c1 [THYMOL] | 25.8 µM | > 30 µM | > 30 µM | > 30 µM | > 30 µM | > 30 µM | > 30 µM |  |  |  |  |
| OC[C@H]1NC[C@H](O)[C@@H](O)[C@H]1O | > 30 µM | > 30 µM | > 30 µM | > 30 µM | > 30 µM | > 30 µM | > 30 µM |  |  |  |  |
| CN1CC2c3ccccc3Oc3ccc(Cl)cc3C2C1 (stereo unspecified) [ASENAPINE] |  |  |  |  |  |  |  |  |  | > 30 µM |  |
| CNC1(c2ccccc2Cl)CCCCC1=O (stereo unspecified) [KETAMINE] | > 30 µM | > 30 µM | > 30 µM | > 30 µM | > 30 µM | > 30 µM | > 30 µM |  |  |  |  |
| CS(=O)(=O)Nc1ccc([N+](=O)[O-])cc1Oc1ccccc1 [NIMESULIDE] | > 30 µM |  | > 30 µM | 26.6 µM | > 30 µM | > 30 µM | > 30 µM | 27 µM | > 30 µM | > 30 µM |  |
| CN1CCN(C(c2ccccc2)c2ccc(Cl)cc2)CC1 (stereo unspecified) [CHLORCYCLIZINE] | 4.86 µM | > 30 µM | > 30 µM | 0.225 µM | 0.505 µM | 11.3 µM | 3.1 µM |  |  |  |  |
| CN(C)CCC=C1c2ccccc2CCc2ccccc21 [AMITRIPTYLINE] |  | > 30 µM | > 30 µM | 7.42 µM |  | > 30 µM | 1.27 µM | > 30 µM | > 10 µM | > 30 µM |  |
| NCCCNCCSP(=O)(O)O [AMIFOSTINE] |  |  |  |  |  |  |  | > 30 µM | > 30 µM | > 30 µM |  |
| O=P1(N(CCCl)CCCl)NCCCO1 (stereo unspecified) [CYCLOPHOSPHAMIDE ANHYDROUS] | > 30 µM | > 30 µM | > 30 µM | > 30 µM | > 30 µM | > 30 µM | > 30 µM |  |  |  |  |
| O=NN(CCCl)C(=O)NC1CCCCC1 [LOMUSTINE] | > 3 µM | > 30 µM | > 30 µM | > 30 µM | > 30 µM | > 30 µM | 3.5 µM |  |  |  |  |
| NCCCCCC(=O)O [AMINOCAPROIC ACID] |  |  |  |  |  |  |  | > 10 µM | > 10 µM |  |  |
| O=C(O)[C@H](O)[C@@H](O)[C@H](O)[C@H](O)CO [GLUCONIC ACID] | > 30 µM | > 30 µM | > 30 µM | > 30 µM | > 30 µM | > 30 µM | > 30 µM |  |  |  |  |
| CC#CC(=O)N1CCC[C@H]1c1nc(-c2ccc(C(=O)Nc3ccccn3)cc2)c2c(N)nccn12 [ACALABRUTINIB] | > 30 µM | > 30 µM | > 30 µM | > 30 µM | > 30 µM | > 30 µM | > 30 µM |  |  |  |  |
| CCCCCCCCCCCCCCCC(=O)OC[C@H](COP(=O)([O-])OCC[N+](C)(C)C)OC(=O)CCCCCCCCCCCCCCC [COLFOSCERIL PALMITATE] | > 30 µM | > 30 µM | > 30 µM | > 30 µM | > 30 µM | > 30 µM | > 30 µM |  |  |  |  |

| Structure (SMILES) | AC50 [1] | AC50 [2] | AC50 [3] | AC50 [4] | AC50 [5] | AC50 [6] | AC50 [7] | AC50 [8] | AC50 [9] | AC50 [10] | AC50 [11] |
| --- | --- | --- | --- | --- | --- | --- | --- | --- | --- | --- | --- |
| O=C1[C@@H]2[C@H]3CC[C@H](C3)[C@@H]2C(=O)N1C[C@@H]1CCCC[C@H]1CN1CCN(c2nsc3ccccc23)CC1 [LURASIDONE] |  | > 30 µM | > 30 µM |  |  | > 30 µM |  |  |  | > 30 µM | 8.7 µM |
| CN1CCC(N(Cc2cccs2)c2ccccc2)CC1 [THENALIDINE] | 23.5 µM | > 30 µM | > 30 µM | 1.61 µM | 0.699 µM | > 30 µM | 8.45 µM |  |  |  |  |
| N=C(N)NCC1COc2ccccc2O1 (stereo unspecified) [GUANOXAN] | 21.3 µM | > 30 µM | > 30 µM | > 30 µM | > 30 µM | > 30 µM | 0.15 µM |  |  |  |  |
| NC(=O)C1(N2CCCCC2)CCN(CCCN2c3ccccc3CCc3ccccc32)CC1 [CARPIPRAMINE] |  | > 30 µM | > 30 µM | 2.94 µM | 4.39 µM | 24.6 µM | 0.208 µM |  |  |  |  |
| CC(=O)Oc1ccccc1C(=O)O [ASPIRIN] | > 30 µM |  | > 30 µM | > 30 µM | > 30 µM | > 30 µM | > 30 µM | > 30 µM | > 10 µM | > 30 µM |  |
| C[C@H](CS)C(=O)N1CCC[C@H]1C(=O)O [CAPTOPRIL] |  |  |  |  |  |  |  |  | > 10 µM |  |  |
| CC(C)NC[C@H](O)COc1ccc(O)cc1 [PRENALTEROL] | > 30 µM | 8.99 µM | > 30 µM | > 30 µM | > 30 µM | > 30 µM | > 30 µM |  |  |  |  |
| CCC1(c2ccccc2)C(=O)NCNC1=O [PRIMIDONE] |  |  |  |  |  |  |  | > 10 µM |  |  |  |
| O=C(O)[C@@H](S)[C@@H](S)C(=O)O |  | > 30 µM | > 30 µM | > 30 µM | > 30 µM | > 30 µM | > 30 µM |  |  |  |  |
| COc1cccc2c1C(=O)c1c(O)c3c(c(O)c1C2=O)C[C@@](O)(C(=O)CO)C[C@@H]3O[C@H]1C[C@H](N)[C@H](O[C@@H]2CCCCO2)[C@H](C)O1 [PIRARUBICIN] | > 10 µM | 0.5 µM | > 10 µM | > 30 µM | > 30 µM | > 1 µM | > 30 µM |  |  |  |  |
| O=C(O)COC(=O)Cc1ccccc1Nc1c(Cl)cccc1Cl [ACECLOFENAC] |  |  |  |  |  |  |  | 2.54 µM | > 10 µM | > 30 µM |  |
| Nc1nnc(-c2cccc(Cl)c2Cl)c(N)n1 [LAMOTRIGINE] |  |  |  |  |  |  |  | > 30 µM | > 10 µM | > 30 µM |  |
| CN(C)CCCC1(c2ccc(F)cc2)OCc2cc(C#N)ccc21 (stereo unspecified) [CITALOPRAM] |  | > 30 µM | > 30 µM |  |  | > 30 µM | > 30 µM | > 30 µM | > 10 µM | > 30 µM |  |
| O=C(c1ccccc1)c1ccc2n1CCC2C(=O)O (stereo unspecified) [KETOROLAC] |  |  |  |  |  |  |  | > 10 µM | > 30 µM |  |  |
| CC(C)NCC(O)COc1ccc(CC(N)=O)cc1 (stereo unspecified) [ATENOLOL] |  |  |  |  |  |  |  | > 30 µM |  |  |  |
| COC(=O)CCc1ccc(OCC(O)CNC(C)C)cc1 (stereo unspecified) [ESMOLOL] |  |  |  |  |  |  |  | > 30 µM | > 30 µM |  |  |
